Assay results: patent US20100273806A1, “TETRAHYDROCYCLOPENTA[B]INDOL-3-YL CARBOXYLIC ACID DERIVATIVES USEFUL IN THE TREATMENT OF AUTOIMMUNE AND INFLAMMATORY DISORDERS” (ARENA PHARMACEUTICALS, INC., priority 2007, published 2010)
Entries after “also recorded” stand apart in the source; their conditions may differ.

Experiments:
S1P1 receptor = target: T1, S1P1 receptor (Homo sapiens, UniProt P21453); assay: HTRF assay for direct cAMP measurement (S1P1 receptor agonists); type: cell-based; conditions: recombinant CHO-K1 cells stably transfected with S1P1 receptor; decrease of cAMP concentration
T1 construct: expressed in transfected cells; host or cells: CHO-K1 (ATCC CCL-61), stably transfected
Source text: Compounds were screened for agonists of S1P1 receptor (e.g., human S1P1 receptor) using HTRF® assay for direct cAMP measurement (Gabriel et al, ASSAY and Drug Development Technologies, 1:291-303, 2003) and recombinant CHO-K1 cells stably transfected with S1P1 receptor. CHO-K1 cells were obtained from ATCC® (Manassas, Va.; Catalog #CCL-61). An agonist of S1P1 receptor was detected in HTRF® assay for direct cAMP measurement as a compound which decreased cAMP concentration. HTRF® assay also was used to determine EC50 values for S1P1 receptor agonists.
Principle of the assay: HTRF® assay kit was purchased from Cisbio-US, Inc. (Bedford, Mass.; Catalog #62AM4PEC). The HTRF® assay supported by the kit is a competitive immunoassay between endogenous cAMP produced by the CHO-K1 cells and tracer cAMP labeled with the dye d2. The tracer binding is visualized by a monoclonal anti-cAMP antibody labeled with Cryptate. The specific signal (i.e., fluorescence resonance energy transfer, FRET) is inversely proportional to the concentration of unlabeled cAMP in the standard or sample.
The fluorescence ratio of the samples (test compound or compound buffer) was calculated and used to deduce respective cAMP concentrations by reference to the cAMP standard curve.
Setup of the assay: HTRF® assay was carried out using a two-step protocol essentially according to the kit manufacturer's instructions, in 20 μL total volume per well in 384-well plate format (ProxiPlates; PerkinElmer, Fremont, Calif.; catalog #6008280). To each of the experimental wells was transferred 1500 recombinant CHO-K1 cells in 5 μL phosphate buffered saline containing calcium chloride and magnesium chloride (“PBS+”; Invitrogen, Carlsbad, Calif.; catalog #14040) supplemented with IBMX (250 μM) and rolipram (20 μM) (phosphodiesterase inhibitors; Sigma-Aldrich, St. Louis, Mo.; catalog #I5879 and catalog #R6520, respectively), followed by test compound in 5 μL compound buffer (PBS+ supplemented with […] (water-soluble forskolin derivative; SignaGen Laboratories, Gaithersburg, Md.; catalog #PKI-NKH477-010)) or 5 μL compound buffer. The plate was then incubated at room temperature for 1 hour. To each well was then added 5 μL cAMP-d2 conjugate in lysis buffer and 5 μL Cryptate conjugate in lysis buffer according to the kit manufacturer's instructions. The plate was then further incubated at room temperature for 1 hour, after which the assay plate was read.
Assay readout: HTRF® readout was accomplished using a PHERAstar (BMG LABTECH Inc., Durham, N.C.) or EnVision™ (PerkinElmer, Fremont Calif.) microplate reader.

Male BALB/c mice = assay: Mouse peripheral lymphocyte lowering (PLL) assay; type: in vivo; conditions: 1 mg/kg i.v. in 100% PEG400, 5 h post dose, compared with vehicle; *P<0.05; FIG. 2
Procedure: Animals: Male BALB/c mice (6 to 7 weeks of age at start of study) (Charles River Laboratories, Wilmington, Mass.) were housed four per cage and maintained in a humidity- (40-60%) and temperature- (68-72° F.) controlled facility on a 12 h:12 h light/dark cycle (lights on at 6:30 am) with free access to food (Harlan Teklad, Orange, Calif., Rodent Diet 8604) and water. Mice were allowed one week of habituation to the animal facility before testing.
PLL Assay: Mice were administered via i.v. one of the following: saline, vehicle (100% PEG400) or 1 mg/kg Compound 52 in vehicle, in a total volume of 5 ml/kg. Peripheral blood samples were collected at 5 h post dose. The mice were anesthetized with isoflurane and bled retro-orbitally (300 μL) into 1.5 ml EDTA tubes. A complete cell count (CBC) (including lymphocyte count) was obtained using CELL-DYN® 3700 (Abbott Laboratories, Abbott Park, Ill.). Results are presented in FIG. 2, in which peripheral blood lymphocyte (PBL) count is shown for the 5 hour group.

S1P3 receptor = S1P3 receptor (Homo sapiens, UniProt Q99500); assay: Cellular/functional Ca2+ assay for agonist activity on S1P3 receptor; type: cell-based; parameters: a human neuroblastoma cell line which endogenously expresses S1P3 (predominantly); endogenous in cells; conditions: human neuroblastoma cell line endogenously expressing S1P3; FIG. 1
Source text: Of these, S1P3 and S1P2 receptors respond to agonist, such as S1P, with an intracellular calcium increase. […] Such an assay can be performed commercially, e.g. by Caliper LifeSciences (Hopkinton, Mass.).
Assay: The human neuroblastoma cells were washed and resuspended in physiological buffer. The cells were then loaded with dye that measures intracellular calcium. S1P was used as a reference agonist. Compound 52 was included in the assay as a test compound. After addition of S1P or Compound 52, fluorescence was measured at 485 nm excitation/525 nm emission every 2 s for at least 60 s. Calcium ionophore A23187 was then added as an internal positive control.

Chain of S1P3 receptor (Q99500 whole entry): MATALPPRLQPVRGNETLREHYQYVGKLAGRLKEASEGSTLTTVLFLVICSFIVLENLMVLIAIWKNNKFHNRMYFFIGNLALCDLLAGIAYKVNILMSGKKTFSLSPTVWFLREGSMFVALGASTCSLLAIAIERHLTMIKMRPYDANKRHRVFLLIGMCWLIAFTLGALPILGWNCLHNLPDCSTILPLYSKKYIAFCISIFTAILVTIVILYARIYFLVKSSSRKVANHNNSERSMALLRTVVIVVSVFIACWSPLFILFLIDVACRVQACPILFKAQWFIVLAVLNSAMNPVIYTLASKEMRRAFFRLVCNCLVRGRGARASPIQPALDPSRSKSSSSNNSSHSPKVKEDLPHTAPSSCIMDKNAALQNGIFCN
T1 sequence (P21453 whole entry): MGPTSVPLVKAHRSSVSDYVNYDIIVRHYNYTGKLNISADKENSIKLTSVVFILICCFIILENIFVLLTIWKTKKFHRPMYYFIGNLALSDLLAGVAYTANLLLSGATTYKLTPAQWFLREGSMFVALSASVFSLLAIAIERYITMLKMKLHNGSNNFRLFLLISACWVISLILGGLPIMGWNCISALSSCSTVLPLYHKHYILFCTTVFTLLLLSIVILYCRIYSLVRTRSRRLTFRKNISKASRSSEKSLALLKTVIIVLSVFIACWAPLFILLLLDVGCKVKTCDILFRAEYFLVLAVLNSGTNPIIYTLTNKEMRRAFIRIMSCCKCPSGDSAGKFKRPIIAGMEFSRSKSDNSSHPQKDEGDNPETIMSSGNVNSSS

Row | EC50 (S1P1 receptor) [nM] | SMILES | peripheral blood lymphocyte (PBL) count / peripheral lymphocyte lowering (Male BALB/c mice) | agonist activity on S1P3 receptor (intracellular calcium) (S1P3 receptor)
1 | 18.8 | N#Cc1cc(-c2nc(-c3ccc4[nH]c5c(c4c3)CCC5CC(=O)O)no2)ccc1OC1CCCC1 (single isomer, unassigned) [Compound 19, 2-(7-(5-(3-Cyano-4-(cyclopentyloxy)phenyl)-1,2,4-oxadiazol-3-yl)-1,2,3,4-tetrahydrocyclopenta[b]indol-3-yl)acetic Acid] | – | –
2 | 43 | N#Cc1cc(OCCF)cc(-c2nc(-c3ccc4[nH]c5c(c4c3)CCC5CC(=O)O)no2)c1 (stereo not shown) [Compound 32, 2-(7-(5-(3-Cyano-5-(2-fluoroethoxy)phenyl)-1,2,4-oxadiazol-3-yl)-1,2,3,4-tetrahydrocyclopenta[b]indol-3-yl)acetic Acid] | – | –
3 | 230 | NC(=O)c1cc(OC(F)(F)F)cc(-c2nc(-c3ccc4[nH]c5c(c4c3)CCC5CC(=O)O)no2)c1 (stereo not shown) [Compound 51, 2-(7-(5-(3-Carbamoyl-5-(trifluoromethoxy)phenyl)-1,2,4-oxadiazol-3-yl)-1,2,3,4-tetrahydrocyclopenta[b]indol-3-yl)acetic Acid] | – | –
4 | 83 | O=C(O)CC1CCc2c1[nH]c1ccc(-c3noc(-c4ccc(OCC(F)(F)F)nc4)n3)cc21 (stereo not shown) [Compound 47, 2-(7-(5-(6-(2,2,2-Trifluoroethoxy)pyridin-3-yl)-1,2,4-oxadiazol-3-yl)-1,2,3,4-tetrahydrocyclopenta[b]indol-3-yl)acetic Acid] | – | –
5 | 94 | COc1ccc(-c2nc(-c3ccc4[nH]c5c(c4c3)CCC5CC(=O)O)no2)cc1C(F)(F)F (stereo not shown) [Compound 42, 2-(7-(5-(4-Methoxy-3-(trifluoromethyl)phenyl)-1,2,4-oxadiazol-3-yl)-1,2,3,4-tetrahydrocyclopenta[b]indol-3-yl)acetic Acid] | – | –
6 | 75.9 | O=C(O)CC1CCc2c1[nH]c1ccc(-c3noc(-c4cc(C(F)(F)F)cc(C(F)(F)F)c4)n3)cc21 (stereo not shown) [Compound 52, 2-(7-(5-(3,5-Bis(trifluoromethyl)phenyl)-1,2,4-oxadiazol-3-yl)-1,2,3,4-tetrahydrocyclopenta[b]indol-3-yl)acetic Acid] | exhibited activity for inducing peripheral lymphocyte lowering | substantially little to no activity; also recorded: no or substantially no agonist activity
7 | – | CNc1ccc2oc(C[C@H]3O[C@@]4(CC[C@H]3C)O[C@H]([C@H](C)C(=O)c3ccc[nH]3)[C@H](C)C[C@H]4C)nc2c1C(=O)O [Compound A23187, reference compound] | – | pronounced agonist activity
8 | 210 | CCOc1ncc(-c2nc(-c3ccc4[nH]c5c(c4c3)CCC5CC(=O)O)no2)cc1C (stereo not shown) [Compound 62, 2-(7-(5-(6-Ethoxy-5-methylpyridin-3-yl)-1,2,4-oxadiazol-3-yl)-1,2,3,4-tetrahydrocyclopenta[b]indol-3-yl)acetic Acid] | – | –
